We go through 27 compounds from patent US20100029704A1, “SALT OF NONSTEROIDAL ANTI-INFLAMMATORY DRUG AND ORGANIC AMINE COMPOUND AND USE THEREOF” (priority 2007, published 2010).

Structures can show the parent of a compound that is named as a salt.

The conditions of series [1]: room temperature; crystals were indomethacin:lidocain 2:1; cited from earlier work.
Series [2] in a line: Form of the salt on standing / long-term preservation. The format is physicochemical. The procedure:
First, a salt was produced using equimolar amounts of a carboxylic acid NSAID and organic amine. […] The obtained ionic liquid or crystals and the like were left standing, confirmed to be stable, and then the forms thereof were observed. This has clarified that the salt produced by the combination of NSAID and an organic amine compound may be a liquid (viscous liquid) or crystal at ambient temperature (25° C.).

A short description of series [3]: Skin permeability test using isolated rat abdominal skin (Franz-type diffusion cell). Particulars: accumulated up to 6 hours, 2.5 wt % as NSAID free acid in diethyl sebacate/propylene glycol, 32° C. The procedure:
An equimolar salt of NSAID and organic amine was dissolved in a mixture of diethyl sebacate and propylene glycol to give a solution preparation. For comparison, a solution preparation (control) of NSAID was prepared in the same manner.
As a receptor solution, saline-ethanol solution (9:1, 8 ml) was placed in an upright Franz-type diffusion cell (effective diffusion area: 1 cm^2), and the solution was stirred and maintained at 32° C. An isolated abdominal shaved skin of 6-week-old Wistar rat was applied to the Franz cell, and the prepared solution preparation (0.15 ml) was applied to the skin. A part (300 μL) of the receptor solution was taken at predetermined time intervals, the drug concentration in the receptor solution was measured by high performance liquid chromatography, and the drug permeation amount per 1 cm^2 rat skin was calculated.
Unless otherwise indicated, in the following Experimental Examples, the drug concentration of the solution preparation is 2.5 wt % as NSAID free acid, and the skin permeation amount is an accumulated amount (μg/cm^2) up to 6 hours.

The nature of series [4]: Solubility of NSAID-eperisone salt and NSAID free acid in diethyl sebacate. The format is physicochemical. Particulars: for dissolution in diethyl sebacate (50 g): 5 g NSAID free acid or ionic liquid corresponding to 5 g NSAID, shaken at room temperature for 30 min; for amount (g) of diethyl sebacate necessary for dissolving NSAID (1 g): NSAID free acid; for amount (g) of diethyl sebacate necessary for dissolving NSAID (1 g) / amount (g) of diethyl sebacate necessary for dissolving an eperisone salt corresponding to NSAID (1 g): room temperature. The procedure: The solubility of an eperisone salt of NSAID, and a free acid of NSAID in diethyl sebacate widely used for external preparations was measured. […] The solutions were stood still and, when an undissolved matter was found, diethyl sebacate was further added, and the mixture was shaken.

Turning to `CCN(CC)CC(=O)Nc1c(C)cccc1C.COc1ccc2c(c1)c(CC(=O)O)c(C)n2C(=O)c1ccc(Cl)cc1`, the “stability of the ionic liquid when stood still” value in series [1] is on record as “crystals were gradually precipitated”. As to `CCN(CC)CC(=O)Nc1c(C)cccc1C.O=C(O)Cc1ccccc1Nc1c(Cl)cccc1Cl` [diclofenac-lidocain salt], the “form/note: crystallization during long-term preservation” value in series [2] was “partial”. `Cc1ccc(C(=O)C(C)CN2CCCCC2)cc1.O=C(O)Cc1ccccc1Nc1c(Cl)cccc1Cl` [diclofenac-tolperisone salt] displayed a diclofenac permeation amount in series [3] of 20.3 μg/cm^2.

As to `COc1cccc(C2(O)CCCCC2CN(C)C)c1.O=C(O)Cc1ccccc1Nc1c(Cl)cccc1Cl` (stereo not shown) [diclofenac-tramadol salt], in series [2], the “form/note: crystallization during long-term preservation” value is reported as “crystallized”.

Consider `O=C(O)Cc1ccccc1Nc1c(Cl)cccc1Cl` [diclofenac], for which, in series [4], the “dissolution in diethyl sebacate (50 g)” value is “not dissolved” and the “amount (g) of diethyl sebacate necessary for dissolving NSAID (1 g)” value (shortened to “amount (g) … for dissolving NSAID (1 g)”) is given as “not less than 100 g”. In series [3], this compound returned a diclofenac permeation amount of 8.8 μg/cm^2. With `CCc1cccc2c3c([nH]c12)C(CC)(CC(=O)O)OCC3` (stereo not shown) [etodolac, reference compound], the “amount (g) … for dissolving NSAID (1 g)” value in series [4] is “not more than 10 g”. The compound also showed an etodolac permeation amount in series [3] of 10.4 μg/cm^2.

With `CCc1ccc(C(=O)C(C)CN2CCCCC2)cc1.CCc1cccc2c3c([nH]c12)C(CC)(CC(=O)O)OCC3` (stereo not shown) [etodolac-eperisone salt], in series [4], the “amount (g) of diethyl sebacate necessary for dissolving an eperisone salt corresponding to NSAID (1 g)” value (shortened to “amount (g) … to NSAID (1 g)”) was “not more than 10 g”. In series [3], this compound gave an etodolac permeation amount of 20.5 μg/cm^2. In series [3], `CCc1cccc2c3c([nH]c12)C(CC)(CC(=O)O)OCC3.Cc1ccc(C(=O)C(C)CN2CCCCC2)cc1` (stereo not shown) [etodolac-tolperisone salt] showed an etodolac permeation amount of 22.3 μg/cm^2. On to `CC(C(=O)O)c1ccc(-c2ccccc2)c(F)c1` (stereo not shown) [flurbiprofen, reference compound], for which, in series [4], the “amount (g) … for dissolving NSAID (1 g)” value is given as “not more than 10 g”. For the same compound, in series [3], the flurbiprofen permeation amount was found to be 20.2 μg/cm^2. In series [3], `CC(C(=O)O)c1ccc(-c2ccccc2)c(F)c1.CC(O)CN(CC(C)O)CC(C)O` (stereo not shown) [flurbiprofen-TIPA salt] registered a flurbiprofen permeation amount of 91.8 μg/cm^2.

On to `CC(C(=O)O)c1ccc(-c2ccccc2)c(F)c1.CCc1ccc(C(=O)C(C)CN2CCCCC2)cc1` (stereo not shown) [flurbiprofen-eperisone salt], for which the “amount (g) … to NSAID (1 g)” value in series [4] is “not more than 10 g”. For the compound `CC(C(=O)O)c1ccc(-c2ccccc2)c(F)c1.CCN(CC)CC(=O)Nc1c(C)cccc1C` (stereo not shown) [flurbiprofen-lidocain salt], in series [3], the flurbiprofen permeation amount was 91.0 μg/cm^2. As for `CC(C(=O)O)c1ccc(-c2ccccc2)c(F)c1.Cc1ccc(C(=O)C(C)CN2CCCCC2)cc1` (stereo not shown) [flurbiprofen-tolperisone salt], in series [3], the flurbiprofen permeation amount worked out at 46.3 μg/cm^2. `CC(C(=O)O)c1ccc(-c2ccccc2)c(F)c1.COc1cccc(C2(O)CCCCC2CN(C)C)c1` (stereo not shown) [flurbiprofen-tramadol salt]: the flurbiprofen permeation amount in series [3] worked out at 78.1 μg/cm^2. `CC(O)CN(CC(C)O)CC(C)O.COc1ccc2c(c1)c(CC(=O)O)c(C)n2C(=O)c1ccc(Cl)cc1` [indomethacin-TIPA salt] yielded an indomethacin permeation amount in series [3] of 15.8 μg/cm^2. As to `CCc1ccc(C(=O)C(C)CN2CCCCC2)cc1.COc1ccc2c(c1)c(CC(=O)O)c(C)n2C(=O)c1ccc(Cl)cc1` [indomethacin-eperisone salt], the “amount (g) … to NSAID (1 g)” value in series [4] is listed as “not more than 10 g”. Compound `COc1ccc2c(c1)c(CC(=O)O)c(C)n2C(=O)c1ccc(Cl)cc1.Cc1ccc(C(=O)C(C)CN2CCCCC2)cc1` [indomethacin-tolperisone salt] showed an indomethacin permeation amount in series [3] of 14.7 μg/cm^2.

`COc1ccc2c(c1)c(CC(=O)O)c(C)n2C(=O)c1ccc(Cl)cc1.COc1cccc(C2(O)CCCCC2CN(C)C)c1` [indomethacin-tramadol salt]: the indomethacin permeation amount in series [3] is on record as 9.8 μg/cm^2. For the compound `COc1ccc2c(c1)c(CC(=O)O)c(C)n2C(=O)c1ccc(Cl)cc1` [indomethacin], in series [4], the “dissolution in diethyl sebacate (50 g)” value was “not dissolved” and the “amount (g) … for dissolving NSAID (1 g)” value is recorded as “not less than 100 g”. This compound also registered an indomethacin permeation amount in series [3] of 6.9 μg/cm^2.

Compound `CC(C(=O)O)c1cccc(C(=O)c2ccccc2)c1` (stereo not shown) [ketoprofen, reference compound] yielded a Ketoprofen permeation amount in series [3] of 36.1 μg/cm^2. Take `CC(C(=O)O)c1ccc(CC2CCCC2=O)cc1` (stereo not shown) [loxoprofen sodium salt, reference compound]: the loxoprofen permeation amount in series [3] (sodium salt) came to 27.1 μg/cm^2. Regarding `CC(C(=O)O)c1ccc(CC2CCCC2=O)cc1.CCCCN1CCCCC1C(=O)Nc1c(C)cccc1C` (stereo not shown) [loxoprofen-bupivacaine salt], the “form/note: crystallization during long-term preservation” value in series [2] was “partially”. Take `CC(C(=O)O)c1ccc(CC2CCCC2=O)cc1.CCc1ccc(C(=O)C(C)CN2CCCCC2)cc1` (stereo not shown) [loxoprofen-eperisone salt]: the “amount (g) … to NSAID (1 g)” value in series [4] is on record as “not more than 10 g”. Further, the loxoprofen permeation amount in series [3] amounted to 91.2 μg/cm^2. `CC(C(=O)O)c1ccc(CC2CCCC2=O)cc1.CCN(CC)CC(=O)Nc1c(C)cccc1C` (stereo not shown) [loxoprofen-lidocain salt]: the loxoprofen permeation amount in series [3] stood at 103.4 μg/cm^2.

As to `CC(C(=O)O)c1ccc(CC2CCCC2=O)cc1.Cc1ccc(C(=O)C(C)CN2CCCCC2)cc1` (stereo not shown) [loxoprofen-tolperisone salt], the loxoprofen permeation amount in series [3] was determined as 82.3 μg/cm^2. As to `CC(C(=O)O)c1ccc(CC2CCCC2=O)cc1` (stereo not shown) [loxoprofen], in series [4], the “dissolution in diethyl sebacate (50 g)” value is recorded as “not dissolved” and the “amount (g) … for dissolving NSAID (1 g)” value is on record as “not less than 100 g”. For the same compound, in series [3] (listed as loxoprofen free acid), the loxoprofen permeation amount was determined as 49.5 μg/cm^2. In series [3], loxoprofen-DIPA salt had a loxoprofen permeation amount of 68.6 μg/cm^2.
